Assay results reported in patent publication US20060206946A1, “Method of disrupting heme transport in nematodes and of modelling and evaluating eukaryotic heme transport” (priority 2005, published 2006).

Experiments:
Type in all cases: in vivo, Caenorhabditis elegans
C. elegans mutant IH718 = test: Growth of heme resistant mutant in CeHR medium; set-up: key: + = wild type equivalent In growth; ND: No growth
Method: To further increase the stringency of our genetic screen we split the contents from each 800 μM hemin selection flasks into two flasks containing either 800 μM or 1000 μM hemin. This allowed us to use another tier of positive selection to identify mutants with greater resistance to heme toxicity. Mutants from each flask were isolated and treated as a separate entity by giving an identification number based on the Genetic Nomenclature Guidelines used for C. elegans (http://biosci.umn.edu/CGC/Nomenclature/nomenguid.htm). To eliminate EMS-induced spurious mutations that could result in false positive, the mutants were outcrossed to wild-type N2 males. After five outcrosses, which replaces ˜97% of the mutant genome, mutants that bred true were selected for further analysis. Using this procedure, we isolated 13 individual mutants that were resistant to heme toxicity. […]
Worm Culture and Growth Assays. […] Worm growth was monitored each day and an aliquot was obtained for counting by microscopy usually at days 3, 6, and 9. The worms in each well were counted twice and each growth condition was analyzed in triplicate. P values for statistical significance were calculated utilizing a one-way ANOVA with Student-Newman-Keuls multiple comparison test using GraphPad Instat version 3.01. […]

[1] = system: C. elegans mutant IH1068 d; test: Growth of heme resistant mutant in CeHR medium; set-up: key to Growth 1.6 μM hemin / Growth 0.5 μM GaPP: + = wild type equivalent In growth; ND: No growth
Method: (§1) To further increase the stringency of our genetic screen we split the contents from each 800 μM hemin selection flasks into two flasks containing either 800 μM or 1000 μM hemin. This allowed us to use another tier of positive selection to identify mutants with greater resistance to heme toxicity. Mutants from each flask were isolated and treated as a separate entity by giving an identification number based on the Genetic Nomenclature Guidelines used for C. elegans (http://biosci.umn.edu/CGC/Nomenclature/nomenguid.htm). To eliminate EMS-induced spurious mutations that could result in false positive, the mutants were outcrossed to wild-type N2 males. After five outcrosses, which replaces ˜97% of the mutant genome, mutants that bred true were selected for further analysis. Using this procedure, we isolated 13 individual mutants that were resistant to heme toxicity. These mutants were further characterized by analyzing Mendelian segregation ratios, X-linkage, phenotype penetrance, generation times, brood size, and their ability to grow under low hemin. […] This observation was surprising because we anticipated that high heme-resistant mutants will grow poorly under low heme. Based on the mutant's growth profile at low and high heme levels, we broadly categorized them into three phenotypic classes: class A, class B and class C (FIG. 13). These “phenoclusters” have the following growth phenotype: (a) three mutants IH728, IH938, IH731 show with robust growth under low and high (≧800 μM heme (FIG. 13B), (b) one mutant IH828 show exceptional growth under low heme, moderate growth at ≦800 μM heme, and no growth at 1000 μM hemin (FIG. 13C), and (c) six mutants IH921, IH11058, IH1068n, IH1068d, IH1048, and IH718 that show moderate growth under high heme (≦800 μM), but normal growth under low heme (FIG. 13D). By classifying these mutants into phenoclusters, we can focus our efforts on the phenotypic datasets to map the molecular networks and pathways involved in heme dependent processes. For instance, mutants in a cluster may have mutations within the same gene or in multiple genes but within the same pathway.
(§2) Worm Culture and Growth Assays. Free-living worms were cultured in CeHR axenic liquid medium (Dr. Eric Clegg, Personal Communication). […] CeHR medium was modified (henceforth called mCeHR) to eliminate all sources of exogenously added heme; basal growth medium comprised 20 μM hemin chloride (Frontier Scientific, Logan, Utah) and 150 μM of ferrous ammonium sulfate (Sigma Chemicals). Worm strains were grown in mCeHR medium under aerobic conditions in tissue culture flasks at 20° C. ˜3.7×10^6 worms were routinely obtained after 3.5 to 4 days in a T75 flask with 30 ml basal medium from an initial inoculum of −1.5×10^5 worms. For initial culturing of worms in axenic media, three generations of worms were sequentially bleached (1.1% bleach/0.55 M NaOH) to eliminate any contaminating bacterial carryover from agar plates. In all dose-response experiments, worms were growth synchronized by treating the gravid hermaphrodite worms with bleach to dissolve adult worms. The eggs, resistant to bleach, were liberated from the carcasses and extensively washed with M9 buffer followed by overnight hatching in M9 buffer to synchronize growth. By harvesting at appropriate time intervals, synchronous larval stages and adult staged worms were collected for experimental manipulations. Identical numbers of synchronized L1 larvae were inoculated into media with different heme concentrations in 12- or 24-well culture plates. Worm growth was monitored each day and an aliquot was obtained for counting by microscopy usually at days 3, 6, and 9. The worms in each well were counted twice and each growth condition was analyzed in triplicate. P values for statistical significance were calculated utilizing a one-way ANOVA with Student-Newman-Keuls multiple comparison test using GraphPad Instat version 3.01. […]

C. elegans mutant IH1048 = test: Growth of heme resistant mutant in CeHR medium; set-up: key to Growth 1.6 μM hemin / Growth 0.5 μM GaPP: + = wild type equivalent In growth; ND: No growth
Method: as §1, §2

[2] = system: C. elegans mutant IH1068 n; test: Growth of heme resistant mutant in CeHR medium; set-up: key to Growth 1.6 μM hemin / Growth 0.5 μM GaPP: + = wild type equivalent In growth; ND: No growth
Method: as §1, §2

C. elegans mutant IH731 = test: Growth of heme resistant mutant in CeHR medium
Method: as §1, §2

R02E12.6 = test: qRT-PCR validation of heme-regulated genes (2^-ΔΔCt method); conditions: low heme
Method: The initial statistical analysis of the Affymetrix genome array was performed at the NIDDK microarray facility using Affymetrix MAS 5.0 Suite software. […] To further narrow-down candidate genes, we eliminated 58 genes that are involved in worm developmental processes by comparing the data from the gene chip to the microarray data of S. Kim. See Kim, S. K. et al., Science 293, 2087-2092 (2001). […] These 280 genes were then sorted based on different categories of changes in gene expression (up, down or no change) seen in 4 μM versus 500 μM samples using 20 μM dataset as the baseline (Table XX). Protein sequence motif analysis (BLOCKS, PRINTS, Pfam), transmembrane (TM-HMM) and secondary structure predictions (ExPASy) proteomics tools are performed to identify domains and motifs within the predicted ORFs […] and the housekeeping gene Ct value: ΔCt=Ctsample−Ctreference. Relative mRNA abundance represents the difference between ΔCt values for a pair of conditions, i.e., 4 μM versus […]. Relative mRNA expression is exponential and defined by the formula [Mrna]=2^−ΔΔCt. […] The standard error for ΔΔCt will be calculated by the method of Livak and Schmittgen. […]

[3] = 20 μM hemin, average in 24 well plates

hemin chloride
Growth 1.6 μM hemin (C. elegans mutant IH718): +
Growth 1.6 μM hemin [1]: +
brood size 20 μM [1, 3]: 12.4
Generation time (Days) 800 μM ([1]; 800 μM hemin): 4 days
Growth 1.6 μM hemin (C. elegans mutant IH1048): +
Generation time (Days) 800 μM (C. elegans mutant IH1048; 800 μM hemin): 4 days
Growth 1.6 μM hemin [2]: +
Generation time (Days) 20 μM ([2]; 20 μM hemin): 4 days
Generation time (Days) 20 μM (C. elegans mutant IH731; 20 μM hemin): 3.5 days
brood size 20 μM (C. elegans mutant IH731; [3]): 53
Generation time (Days) 800 μM (C. elegans mutant IH731; 800 μM hemin): 4 days
upregulation of R02E12.6 by qRT-PCR (R02E12.6): > 40 fold
